Where two headings read alike, the source gives them in different places.
What was measured:
[1] = test system: patients with septic shock and elevated adrenomedullin; assay: AdrenOSS-2 phase II clinical trial; format: in vivo, human
Description: AdrenOSS-2 is a double-blind, placebo-controlled, randomized, multicenter, proof of concept and dose-finding phase II clinical trial to investigate the safety, tolerability and efficacy of the N-terminal ADM antibody named Adrecizumab in patients with septic shock and elevated adrenomedullin (Geven et al. BMJ Open 2019; 9:e024475). In total, 301 patients with septic shock and bio-ADM concentration >70 pg/mL were randomized (2:1:1) to treatment with a single intravenous infusion over approximately 1 hour with either placebo (n=152), adrecizumab […] (n=72) or Adrecizumab […] (n=77). All-cause mortality within 28 (90) days after inclusion was 25.8% (34.8%). Mean age was 68.4 years and 61% were male. For the per protocol analysis, n=294 patients remained eligible, and 14-day all-cause mortality rate was 18.5%.
Furthermore, different subpopulations of the cohort were analyzed. Main outcomes were 28-day mortality, change in Horovitz Index (PaO2/FiO2) (at 24 h/48 h/72 h), change in SOFA score (at 24 h/48 h/72 h) or change in respiratory SOFA score component (also based on PaO2/FiO2) (at 24 h/48 h/72 h). All p-values are 2-sided and a p-value of 0.20 should be considered significant.

[2] = test system: mice with CLP-induced sepsis; conditions: pre-treatment, cited from earlier work
[3] = test system: endotoxemic rats; conditions: pre-treatment; cited from earlier work
[4] = cited from earlier work
[5] = test system: extreme-critically ill COVID-19 patients with acute respiratory distress syndrome (ARDS); conditions: cited from earlier work

Adrecizumab: humanized N-terminal anti-ADM monoclonal antibody, heavy chain SEQ ID NO: 35, light chain SEQ ID NO: 36
change in Horovitz-Index ([1]; Horovitz-Index <170 and mechanical ventilation (n=48), after 24 hours (0.48)): trended to be higher
change in SOFA score vs placebo ([1]; Horovitz-Index <170 and mechanical ventilation (n=48), after 24 hours, p=0.032): significantly lower
change in SOFA score vs placebo ([1]; Horovitz-Index <170 and mechanical ventilation (n=48), after 48 hours, p=0.012): significantly lower
change in Horovitz-Index, mean increase ([1]; Horovitz-Index <170 and mechanical ventilation (n=48), after 48 hours, p=0.09): 64.2
change in SOFA score vs placebo ([1]; Horovitz-Index <170 and mechanical ventilation (n=48), after 72 hours, p=0.028): significantly lower
change in Horovitz-Index, mean increase ([1]; Horovitz-Index <170 and mechanical ventilation (n=48), after 72 hours, p=0.11): 66.4
28-day mortality vs placebo ([1]; Horovitz-Index <170 and mechanical ventilation at baseline (n=48), p=0.37): trended to be lower
change in SOFA score vs placebo ([1]; mechanical ventilation at baseline (n=161), after 24 hours, p=0.002): significantly lower
change in respiratory SOFA score vs placebo ([1]; mechanical ventilation at baseline (n=161), after 24 hours, p=0.021): significantly lower
change in Horovitz-Index ([1]; mechanical ventilation at baseline (n=161), after 48 hours, p=0.007): significantly higher
change in respiratory SOFA score vs placebo ([1]; mechanical ventilation at baseline (n=161), after 48 hours, p=0.011): significantly lower
change in SOFA score vs placebo ([1]; mechanical ventilation at baseline (n=161), after 48 hours, p=0.109): significantly lower
change in respiratory SOFA score vs placebo ([1]; mechanical ventilation at baseline (n=161), after 72 hours, p=0.066): significantly lower
change in Horovitz-Index ([1]; mechanical ventilation at baseline (n=161), after 72 hours, p=0.087): significantly higher
change in SOFA score vs placebo ([1]; mechanical ventilation at baseline (n=161), after 72 hours, p=0.31): trended to be lower
change in Horovitz-Index, mean increase ([1]; mechanical ventilation at baseline (n=161), at 24 hours, p=0.155): 56.2
28-day mortality vs placebo ([1]; mechanical ventilation at baseline (n=161), p=0.157): significantly lower
change in SOFA score vs placebo ([1]; shock patients with ALI/ARDS (n=80), after 24 hours, p=0.005): significantly lower
change in respiratory SOFA score vs placebo ([1]; shock patients with ALI/ARDS (n=80), after 24 hours, p=0.26): trended to be lower
change in SOFA score vs placebo ([1]; shock patients with ALI/ARDS (n=80), after 48 hours, p=0.025): significantly lower
change in respiratory SOFA score vs placebo ([1]; shock patients with ALI/ARDS (n=80), after 48 hours, p=0.09): significantly lower
change in SOFA score vs placebo ([1]; shock patients with ALI/ARDS (n=80), after 72 hours, p=0.38): trended to be lower
renal vascular leakage ([2]; mice with CLP-induced sepsis): attenuated
7-day survival ([2]; repeated dose administration (control 0%)): 40%
7-day survival ([2]; single dose administration (control 10%)): 50%
renal vascular leakage [3]: attenuated
circulating ADM following administration ([4]; animal and human data): potent, dose-dependent increase
safety and tolerability, serious adverse events ([4]; phase I study): no serious adverse events were observed
mortality ([5]; compared with mortality calculated by the SOFA score): lower than expected
PaO2/FiO2 ([5]; single dose, within 12 days): increased
SOFA score and disease severity score ([5]; single dose, within 12 days): decreased in five out of the seven surviving patients
inflammatory parameters C-reactive protein, procalcitonin, and interleukin-6 ([5]; single dose): decreased
